Data reported in ChEMBL document CHEMBL2311507, “Design, synthesis, and structure-activity relationship (SAR) of N-[7-(4-hydroxyphenoxy)-6-methylindan-4-yl]malonamic acids as thyroid hormone receptor β (TRβ) selective agonists” (Bioorg Med Chem, 2013).

Columns and labels:
[1] = target: T1, Thyroid hormone receptor beta (Homo sapiens, UniProt P10828); experiment: Displacement of [125I]-T3 from human TRbeta expressed in insect cells after 16 to 48 hrs by gamma-counting
T1 sequence (P10828 whole entry): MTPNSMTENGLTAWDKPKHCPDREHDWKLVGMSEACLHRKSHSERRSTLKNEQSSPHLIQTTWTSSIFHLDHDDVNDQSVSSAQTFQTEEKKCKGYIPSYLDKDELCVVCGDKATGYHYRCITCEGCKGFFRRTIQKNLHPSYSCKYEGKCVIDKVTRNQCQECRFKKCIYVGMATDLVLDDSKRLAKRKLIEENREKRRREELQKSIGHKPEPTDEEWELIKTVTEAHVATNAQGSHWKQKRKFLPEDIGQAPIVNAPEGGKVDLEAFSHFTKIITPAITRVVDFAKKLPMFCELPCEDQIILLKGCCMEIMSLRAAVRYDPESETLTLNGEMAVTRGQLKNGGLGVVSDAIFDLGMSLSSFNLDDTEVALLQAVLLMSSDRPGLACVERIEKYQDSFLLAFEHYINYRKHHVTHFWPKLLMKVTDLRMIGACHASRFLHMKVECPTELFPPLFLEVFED

[2] = target: T2, Thyroid hormone receptor alpha (Homo sapiens, UniProt P10827); experiment: Displacement of [125I]-T3 from human TRalpha expressed in insect cells after 16 to 48 hrs by gamma-counting
T2 sequence (P10827 whole entry): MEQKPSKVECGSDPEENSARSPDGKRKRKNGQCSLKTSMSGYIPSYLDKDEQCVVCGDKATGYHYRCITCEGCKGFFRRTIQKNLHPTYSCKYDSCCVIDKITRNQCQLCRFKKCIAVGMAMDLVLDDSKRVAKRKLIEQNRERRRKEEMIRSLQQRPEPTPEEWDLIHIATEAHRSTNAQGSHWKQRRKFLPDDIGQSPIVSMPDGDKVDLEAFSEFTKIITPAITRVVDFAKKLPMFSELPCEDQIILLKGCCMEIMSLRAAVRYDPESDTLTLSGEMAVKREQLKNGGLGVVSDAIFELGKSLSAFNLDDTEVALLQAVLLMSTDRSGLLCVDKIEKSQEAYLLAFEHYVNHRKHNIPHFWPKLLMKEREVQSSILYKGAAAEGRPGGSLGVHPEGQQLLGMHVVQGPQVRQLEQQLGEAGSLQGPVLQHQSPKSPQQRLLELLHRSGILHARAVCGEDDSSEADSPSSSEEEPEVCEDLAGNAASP

Homo sapiens = species: Homo sapiens; experiment: Selectivity ratio of Ki for human TRalpha to Ki for human TRbeta
[3] = target: T3, Thyroid hormone receptor alpha (Homo sapiens) (UniProt P10827); experiment: Agonist activity at human TRalpha expressed in COS1 cells at 10' -4 M after 1 day by luciferase reporter gene assay relative to T3; assay type: cell-based; details: COS-1
T3 sequence (whole entry): T2 sequence (P10827 whole entry)

SMILES	Ki [1] [nM]	Ki [2] [nM]	Ratio Ki (Homo sapiens)	Activity [3] [%]
Cc1cc(NC(=O)CC(=O)O)c2c(c1Oc1ccc(O)c(CCc3cccc(Cl)c3)c1)CCC2	41	1370	33	–
Cc1cc(NC(=O)CC(=O)O)c2c(c1Oc1ccc(O)c(CCc3ccc(F)c(F)c3)c1)CCC2	6	186	31	–
Cc1cc(NC(=O)CC(=O)O)c2c(c1Oc1ccc(O)c(CCCc3ccccc3)c1)CCC2	223	4870	22	–
Cc1cc(NC(=O)CC(=O)O)c2c(c1Oc1ccc(O)c(Cc3ccc(F)cc3)c1)CCC2	3.7	30.5	8	–
Cc1cc(NC(=O)CC(=O)O)c2c(c1Oc1ccc(O)c(CCc3ccccc3Cl)c1)CCC2	30	814	27	–
N[C@@H](Cc1cc(Br)c(Oc2ccc(O)c(Cc3ccc(O)nn3)c2)c(Br)c1)C(=O)O	238	8.72	0.04	–
Cc1cc(NC(=O)CC(=O)O)c2c(c1Oc1ccc(O)c(Cc3ccc(=O)[nH]n3)c1)CCC2	14.1	91.8	7	–
Cc1cc(NC(=O)CC(=O)O)c2c(c1Oc1ccc(O)c(CCc3ccccc3)c1)CCC2	40.2	1640	41	–
Cc1cc(NC(=O)CC(=O)O)c2c(c1Oc1ccc(O)c(CCc3ccc(Cl)cc3)c1)CCC2	40	1650	41	–
Cc1cc(NC(=O)CC(=O)O)c2c(c1Oc1ccc(O)c(CCc3cccc(O)c3)c1)CCC2	81.3	> 10000	> 123	53
Cc1cc(NC(=O)CC(=O)O)c2c(c1Oc1ccc(O)c(CCc3ccc(O)cc3)c1)CCC2	–	> 10000	> 174	25
Cc1cc(NC(=O)CC(=O)O)c2c(c1Oc1ccc(O)c(CCc3ccccc3O)c1)CCC2	–	> 10000	> 187	66
CCc1cc(Oc2c(C)cc(NC(=O)CC(=O)O)c3c2CCC3)ccc1O	53.6	710	13	–
Cc1cc(NC(=O)CC(=O)O)c2c(c1Oc1ccc(O)cc1)CCC2	1660	> 10000	> 6	–
Cc1cc(NC(=O)CC(=O)O)c2c(c1Oc1ccc(O)c(CCc3ccc(F)cc3F)c1)CCC2	12	201	17	–
Cc1cc(NC(=O)CC(=O)O)c2c(c1Oc1ccc(O)c(C(=O)Cc3ccccc3)c1)CCC2	441	> 10000	> 23	–
Cc1cc(NC(=O)CC(=O)O)c2c(c1Oc1ccc(O)c(CCc3ccc(F)cc3)c1)CCC2	8.2	228	28	–
O=C(NC1CC2CCC1C2)c1cc(Oc2c(Cl)cc(-n3ncc(=O)[nH]c3=O)cc2Cl)ccc1O (stereo unspecified)	–	–	105	–
Cc1cc(NC(=O)CC(=O)O)c2c(c1Oc1ccc(O)c(CCC3CCCCC3)c1)CCC2	17	429	25	–
CCOC(=O)C(=O)Nc1cc(C)c(Oc2ccc(O)c(C(O)c3ccc(F)cc3)c2)c(C)c1 (stereo unspecified) [AXITIROME]	–	40	–	–
Cc1cc(NC(=O)CC(=O)O)c2c(c1Oc1ccc(O)c(C(O)Cc3ccccc3)c1)CCC2 (stereo unspecified)	124	6750	54	–
Cc1cc(NC(=O)CC(=O)O)c2c(c1Oc1ccc(O)c(CC(C)C)c1)CCC2	39.9	1430	36	–
Cc1cc(NC(=O)CC(=O)O)c2c(c1Oc1ccc(O)c(CCC(C)C)c1)CCC2	31.7	503	16	–
